From patent US20210163443A1, “Febrifugine Derivatives” (BRISTOL-MYERS SQUIBB COMPANY, priority 2019, published 2021)
Counter-ions that a name gives are not always drawn.

tested on: Rat hepatocytes; assay: GSH trapping assay in rat hepatocytes; assay type: in vitro ADME; details: 30 μM, 24 hr incubation, LC-MS
Protocol: Rat hepatocytes were isolated from male Sprague-Dawley rats (Vivo Biotech Ltd, HYD, India), weighing 230 to 280 g by the two step collagenase perfusion method (seglen, 1976; Berry M N and Friend D S.1969). Rat hepatocytes were cultured in Dulbecco's Modified Eagle's Medium (DMEM, Gibco®, USA) supplemented with 10^−6 M dexamethasone (Gibco®), 5% fetal bovine serum (Gibco®) and cocktail-A mix (CM3000, Gibco®) containing HEPES buffer (PH 7.4), GlutaMAX™, human recombinant insulin, penicillin and streptomycin. Initial cell viability assessed by Trypanblue stain 0.4% (Sigma, UK) and viability more than 80% were considered for culturing. Hepatocytes were seeded in 96 well type-I collagen coated plates (Gibco®) at 4×10^4 cells/well in 100 μL of the culture medium and incubated at 37° C. in 5% CO2 and 95% relative humidity (RH) for 4 hr of cell attachment.
After 4 hr incubation, rat hepatocytes were washed twice with pre-warmed (37° C.) DMEM incubation medium supplemented with 10^−7 M dexamethasone and cell maintenance cocktail-B (CM4000, Gibco®) solution to remove unattached cells. Post washing hepatocytes were treated with test and reference compounds in incubation medium at single concentration (30 μM) in duplicate and incubate further for 24 hr at 37° C. with 5% CO2 and 95% RH. The final concentration of DMSO in medium was 0.5%.
Post 24 hr incubation, hepatocyte samples were quenched with equal volumes of acetonitrile containing 0.1% formic acid followed by vortex mix, sonicate and centrifuge at 12000 rpm at room temperature for 5 min. Supernatant samples were analyzed for GSH adducts on a C18 reverse-phase column (Xbridge™ Shield, C18, 4.6×150 mm, 3.5 μm) with solvent A (10 mM ammonium formate and 0.1% formic acid/water) and solvent B (0.1% formic acid/acetonitrile).
The column was eluted with 5% B for 5 min and then with a linear gradient to 20% B over 10 min and it was maintained up to 15 min, then it was increased linearly to 40% B up to 27 min and then increase to 90% B up to 29 min, and then equilibrate back the column to 5% B up to 33 min at a flow rate of 0.6 ml/min. The column effluent was directed into the ESI source of a LTQ Velos Orbitrap mass spectrometer (Thermo Fisher Scientific, San Jose, Calif.). The ESI conditions were as follows: sheath gas flow rate, 40 arbitrary units; auxiliary gas, 30 arbitrary units; spray voltage, 4.5 kV; capillary temperature, 230° C.; capillary voltage, 30 V; and tube lens offset, 25 V. Data were acquired in positive ion mode using Xcalibur software (Thermo Fisher Scientific) with one full scan followed by two data-dependent scans of the most intense and the second most intense ions. During the data interpretation the characteristic fragments of neutral loss of glycine (75.0320 Da), pyroglutamic acid (129.0426 Da) and loss of neutral moiety GSH (307.0838 Da) and/or a specific fragment of (GSH+H)^+ (m/z 308.0911) were monitored. Finally the fragments ions with m/z e.g. 179.0485, 177.0328 and 162.0219 Da, which were derived from the glutathione moiety were used to report GSH positive results.

Structure (SMILES)	GSH adduct formation
CCc1cc(Br)cc2c(=O)n(C[C@@H](O)C[C@H]3NCCC[C@@H]3O)cnc12.Cl [Example 48, 6-Bromo-8-ethyl-3-{(S)-2-hydroxy-3-[(2R,3S)-3-hydroxypiperidin-2-yl]propyl}quinazolin-4(3H)-one hydrochloride]	Negative
Cc1cc2ncn(C[C@@H](O)C[C@H]3NCCC[C@@H]3O)c(=O)c2cc1Cl.Cl [Example 31, 6-Chloro-3-{(S)-2-hydroxy-3-[(2R,3S)-3-hydroxypiperidin-2-yl]propyl}-7-methylquinazolin-4(3H)-one hydrochloride]	Negative (detected by mass only)

The next lines start with the values.

GSH adduct formation	Structure (SMILES)
Negative	Cc1cc(Br)cc2c(=O)n(CC(=O)C[C@H]3NCCC[C@@H]3O)cnc12.Cl [Example 3, 6-Bromo-3-{3-[(2R,3S)-3-hydroxypiperidin-2-yl]-2-oxopropyl}-8-methylquinazolin-4(3H)-one hydrochloride]
Negative	Cl.O=c1c2c(-c3cccc(F)c3)cccc2ncn1C[C@@H](O)C[C@H]1NCCC[C@@H]1O [Example 49]

molecular target: T1, human ProRS (prolyl tRNA synthetase moiety of glutamyl prolyl tRNA synthetase, EPRS) (Homo sapiens, UniProt P07814); assay: Assay for inhibitors of prolyl tRNA synthetase activity (ProRS assay, labeled proline incorporation); assay type: biochemical; details: not given
T1 construct: The prolyl tRNA synthetase moiety (ProRS) in the cDNA of glutamyl prolyl tRNA synthetase was subcloned; 6xHis (N, cleaved yes); made in house; host or cells: E. coli BL21 (DE3)
T1 sequence (P07814 1007-1512 limits assumed): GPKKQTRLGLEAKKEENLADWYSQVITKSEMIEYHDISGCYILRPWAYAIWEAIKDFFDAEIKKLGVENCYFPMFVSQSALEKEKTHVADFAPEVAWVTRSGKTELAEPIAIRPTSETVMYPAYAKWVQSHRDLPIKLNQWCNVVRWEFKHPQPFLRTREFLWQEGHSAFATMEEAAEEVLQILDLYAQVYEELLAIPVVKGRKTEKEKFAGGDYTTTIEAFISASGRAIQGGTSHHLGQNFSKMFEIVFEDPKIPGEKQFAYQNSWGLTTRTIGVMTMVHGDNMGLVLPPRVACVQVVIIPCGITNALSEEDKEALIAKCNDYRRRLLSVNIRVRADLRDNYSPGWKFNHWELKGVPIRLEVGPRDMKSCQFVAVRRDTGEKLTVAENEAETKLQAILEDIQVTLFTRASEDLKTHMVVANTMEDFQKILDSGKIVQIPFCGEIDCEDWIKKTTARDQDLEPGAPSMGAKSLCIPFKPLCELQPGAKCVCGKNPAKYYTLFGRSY
Text: In order to establish the activities of the compounds highlighted above, we determined extent of inhibition of prolyl tRNA synthetase activity in dose response curves to obtain IC50 values.
The prolyl tRNA synthetase moiety (ProRS) in the cDNA of glutamyl prolyl tRNA synthetase was subcloned, tagged with a single biotin, purified and used in the assay.
Briefly, human ProRS with a 6×N-terminal His tag in pET28N with TVMV BioP was transformed in E. coli BL21 (DE3) cells, selected, overexpressed and purified using a Ni Seph 6 FF XK 16/20 column in the first stage. Ni-NTA eluates were pooled and treated with TVMV protease, and biotinylated using d-Biotin, MgCl2, ATP and the BirA enzyme. This was rerun through a Ni column as before. The eluates were further enriched and purified using membrane ultrafiltration and a SuperDex 200 XK 16/60 column, and peak fractions were confirmed by SDS-PAGE prior to protein amount determination, aliquoting and storage at −80° C. • ProRS assay was performed in 96 well plates in a final reaction volume of 20 μl, using staggered additions of Tris-Cl (pH 7.5, 60 mM), dithiothreitol (2 mM), ATP (5 mM, pH 7.0), MgCl2 6 mM), ProRS (20 nM, with pre-determined active fraction range) and bovine tRNA (20 μg). Controls and compounds, at various concentrations (10 μM to 0.5 nM), were incubated on ice with enzyme mix for 15 min followed by addition of proline (non-labeled and labeled, 3.96 and 1.04 μM (1 μCi) respectively) to initiate the reaction. Reaction was carried out for 10 min at 37° C. and terminated by addition of TCA (10%, 100 μl). Reaction mix was collected on a Whatman GF/B filter using a vacuum filtration manifold. This filter was washed 3 times with 5% TCA followed by 2 washes with ethanol, air dried, and read using a liquid scintillation counter (TopCount NXT) using MicroScint O. IC50 values were calculated and analyzed using ToolSet (4-parameter plot) and depicted herein.

Structure (SMILES)	IC50 [nM]
Cc1cc2ncn(C[C@@H](O)C[C@H]3NCCC[C@@H]3O)c(=O)c2cc1Cl.Cl [Example 31, 6-Chloro-3-{(S)-2-hydroxy-3-[(2R,3S)-3-hydroxypiperidin-2-yl]propyl}-7-methylquinazolin-4(3H)-one hydrochloride]	17

same assay, conditions: human ProRS 20 nM, 10 min at 37° C.; read-out: EPRS IC50

Structure (SMILES)	IC50 [nM]
CCc1cc(Br)cc2c(=O)n(C[C@@H](O)C[C@H]3NCCC[C@@H]3O)cnc12.Cl [Example 48, 6-Bromo-8-ethyl-3-{(S)-2-hydroxy-3-[(2R,3S)-3-hydroxypiperidin-2-yl]propyl}quinazolin-4(3H)-one hydrochloride]	83
Cc1cc(C2CCC2)cc2c(=O)n(C[C@@H](O)C[C@H]3NCCC[C@@H]3O)cnc12 [Example 67, 6-cyclobutyl-3-{(S)-2-hydroxy-3-[(2R,3S)-3-hydroxypiperidin-2-yl]propyl}-8-methylquinazolin-4(3H)-one]	18
Cc1cc(-c2ccc(F)c(F)c2)cc2c(=O)n(C[C@@H](O)C[C@H]3NCCC[C@@H]3O)cnc12 [Example 56, 6-(3,4-Difluorophenyl)-3-{(S)-2-hydroxy-3-[(2R,3S)-3-hydroxypiperidin-2-yl]propyl}-8-methylquinazolin-4(3H)-one hydrochloride]	4
O=c1c2c(-c3ccc(F)c(F)c3)cccc2ncn1C[C@@H](O)C[C@H]1NCCC[C@@H]1O [Example 61, 5-(3,4-Difluorophenyl)-3-{(S)-2-hydroxy-3-[(2R,3S)-3-hydroxypiperidin-2-yl]propyl}quinazolin-4(3H)-one hydrochloride]	69
Cl.O=c1c2c(-c3cccc(F)c3)cccc2ncn1C[C@@H](O)C[C@H]1NCCC[C@@H]1O [Example 49, 5-(3-Fluorophenyl-3-{(S)-2-hydroxy-3-[(2R,3S)-3-hydroxypiperidin-2-yl]propyl}quinazolin-4(3H)-one hydrochloride]	41
Cc1cc(Br)cc2c(=O)n(C[C@@H](O)C[C@H]3NCCC[C@@H]3O)cnc12 [Example 37, 6-Bromo-3-{(S)-2-hydroxy-3-[(2R,3S)-3-hydroxypiperidin-2-yl]propyl}-8-methylquinazolin-4(3H)-one hydrochloride]	62
Cc1cc(-c2cccc(F)c2)cc2c(=O)n(CC(=O)C[C@H]3NCCC[C@@H]3O)cnc12 [Example 19, 6-(3-Fluorophenyl)-3-{3-[(2R,3S)-3-hydroxypiperidin-2-yl]-2-oxopropyl}-8-methylquinazolin-4(3H)-one hydrochloride]	9
Cc1cc(-c2cccc(C(F)(F)F)c2)cc2c(=O)n(C[C@@H](O)C[C@H]3NCCC[C@@H]3O)cnc12 [Example 54, 3-{(S)-2-Hydroxy-3-[(2R,3S)-3-hydroxypiperidin-2-yl]propyl}-8-methyl-6-(3-(trifluoromethyl)phenyl)quinazolin-4(3H)-one hydrochloride]	31
Cc1cc(-c2ccc(F)c(F)c2)cc2c(=O)n(CC(=O)C[C@H]3NCCC[C@@H]3O)cnc12 [Example 22, 6-(3,4-Difluorophenyl)-3-{3-[(2R,3S)-3-hydroxypiperidin-2-yl]-2-oxopropyl}-8-methylquinazolin-4(3H)-one hydrochloride]	15
Cc1cc(Cl)cc2c(=O)n(C[C@@H]3C[C@@H]4[C@@H](O)CCCN4CO3)cnc12 [Example 72, 6-Chloro-3-{[(3S,4aR,5S)-5-hydroxyhexahydro-1H,3H-pyrido[1,2-c][1,3]oxazin-3-yl]methyl}-8-methylquinazolin-4(3H)-one]	> 10000
Cc1cc(C2CCOCC2)cc2c(=O)n(C[C@@H](O)C[C@H]3NCCC[C@@H]3O)cnc12 [Example 57, 3-{(S)-2-Hydroxy-3-[(2R,3S)-3-hydroxypiperidin-2-yl]propyl}-8-methyl-6-(tetrahydro-2H-pyran-4-yl)quinazolin-(3H)-one hydrochloride]	52

The next lines start with the values.

IC50 [nM]	Structure (SMILES)
4	Cc1cc(Br)cc2c(=O)n(CC(=O)C[C@H]3NCCC[C@@H]3O)cnc12.Cl [Example 3, 6-Bromo-3-{3-[(2R,3S)-3-hydroxypiperidin-2-yl]-2-oxopropyl}-8-methylquinazolin-4(3H)-one hydrochloride]
> 10000	Cc1cc(Cl)cc2c(=O)n(C[C@@H](O)C[C@H]3NCCC[C@@H]3OC(=O)C(C)(C)C)cnc12 [Example 63, (2R,3S)-2-{(S)-3-[6-chloro-8-methyl-4-oxoquinazolin-3(4H)-yl]-2-hydroxypropyl}piperidin-3-ylpivalate hydrochloride]
13	O=C(C[C@H]1NCCC[C@@H]1O)Cn1cnc2cccc(-c3cccc(C(F)(F)F)c3)c2c1=O [Example 26, 3-{3-[(2R,3S)-3-Hydroxypiperidin-2-yl]-2-oxopropyl}-5-[3-(trifluoromethyl)phenyl]quinazolin-4(3H)-one hydrochloride]
6	CCc1cc(Br)cc2c(=O)n(CC(=O)C[C@H]3NCCC[C@@H]3O)cnc12 [Example 13, 6-Bromo-8-ethyl-3-{3-[(2R,3S)-3-hydroxypiperidin-2-yl]-2-oxopropyl}quinazolin-4(3H)-one hydrochloride]
20	Cc1cc(OC(F)(F)F)cc2c(=O)n(C[C@@H](O)C[C@H]3NCCC[C@@H]3O)cnc12 [Example 42, 3-{(S)-2-Hydroxy-3-[(2R,3S)-3-hydroxypiperidin-2-yl]propyl}-8-methyl-6-(trifluoromethoxy)quinazolin-4(3H)-one hydrochloride]
